IC50 data for 22 molecules are collected here from ChEMBL document CHEMBL1641537, “Chalcone-based inhibitors against hypoxia-inducible factor 1--structure activity relationship studies” (Bioorg Med Chem Lett, 2011).

The term IC50 denotes the point on the concentration scale where inhibition reaches its midpoint. Low values mean higher potency, high ones lower potency.

Structures are written as SMILES.

This assay is described as follows: Inhibition of cobalt chloride-induced HIF-1 activation expressed in mouse NIH3T3 cells after 8 hrs by luciferase reporter gene assay. The note with it: NIH3T3, 8 h. It is filed as cell-based.
`O=C(/C=C/c1ccccc1)c1ccc(F)cc1` yielded an IC50 greater than 20 µM.
The figure for `O=C(/C=C/c1ccccc1O)c1ccccc1` is greater than 20 µM; for `COc1cc(O)c(C(=O)/C(C)=C/c2ccccc2)c(OC)c1` it is greater than 20 µM; for `COc1cc(O)c(C(=O)/C=C/c2ccccc2Br)c(OC)c1` it is 11.6 µM.
In turn, `Cc1ccc(C(=O)/C=C/c2ccccc2)cc1` came in with an IC50 greater than 20 µM.
For the molecule `COc1cc(O)c(C(=O)/C=C/c2ccccc2C)c(OC)c1`, the half-inhibitory concentration (IC50) stood at 9.9 µM.
Regarding `COc1cc(O)c(C(=O)/C=C/c2cccc(Br)c2)c(OC)c1`, the half-inhibitory concentration (IC50) was 2.2 µM.
Take `COc1cc(O)c(C(=O)/C=C/c2cccc(C)c2)c(OC)c1`: the IC50 is 3.6 µM.
In turn, `COc1cc(O)c(C(=O)/C=C/c2ccc(F)cc2)c(OC)c1` returned an IC50 greater than 20 µM.
Molecule `O=C(/C=C/c1ccccc1)c1ccc(F)c(F)c1` returned an IC50 greater than 20 µM.
Regarding `O=C(/C=C/c1ccccc1)c1ccc(C(F)(F)F)cc1`, the half-maximal inhibitory concentration (IC50) is greater than 20 µM.
In turn, `CCCOc1ccc(/C=C/C(=O)c2c(O)cc(OC)cc2OC)cc1` came in with an IC50 of 12 µM.
The figure for `COc1cc(O)c(C(=O)/C=C/c2ccc(Cl)cc2)c(OC)c1` is greater than 20 µM.
As to `O=C(/C=C/c1ccc(O)cc1)c1ccccc1` [4-HYDROXYCHALCONE], the IC50 was greater than 20 µM.
Turning to `O=C(/C=C/c1ccc(O)c(O)c1)c1ccc(O)cc1O` [BUTEIN], the IC50 is greater than 20 µM.
`COc1cc(/C=C/C(=O)CC(=O)/C=C/c2ccc(O)c(OC)c2)ccc1O` [CURCUMIN] yielded an IC50 of 9.6 µM.
`COc1ccc(/C=C/C(=O)c2c(O)cc(OC)cc2OC)cc1` [FLAVOKAWAIN A] had a half-inhibitory concentration (IC50) of 11 µM.
Consider `COc1cc(O)c(C(=O)/C=C/c2ccccc2)c(OC)c1` [FLAVOKAWAIN B], for which the IC50 is 3.3 µM.
The molecule `COc1cc(O)c(C(=O)/C=C/c2ccc(O)cc2)c(OC)c1` [FLAVOKAWAIN C] came in with an IC50 of 3.1 µM.
For the molecule `CC(C)=CCc1c(O)cc(C(=O)[C@H]2[C@@H](c3c(O)ccc(C(=O)/C=C/c4ccc(O)cc4O)c3O)C=C(C)C[C@@H]2c2ccc(O)cc2O)cc1O` [KUWANON J], inhibition was half-maximal at 4.1 µM (IC50).
For the molecule `CC(C)=CCc1c(O)cc(C(=O)[C@H]2[C@@H](c3c(O)ccc(C(=O)/C=C/c4ccc(O)cc4)c3O)C=C(C)C[C@@H]2c2ccc(O)cc2O)cc1O` [KUWANON R], half-maximal inhibition (IC50) was put at 3.2 µM.
Turning to `CC(C)=CCc1c(O)cc(C(=O)[C@H]2[C@@H](c3c(O)ccc(C(=O)/C=C/c4ccc(O)cc4)c3O)C=C(C)C[C@@H]2c2ccc(O)cc2)cc1O` [KUWANON V], the IC50 was 8.3 µM.
